Results published in patent US5602100A, “Dermorphin analogs having pharmacological activity” (priority 1988, dated 1997).
Non-standard residues stand in square brackets, D forms with d. Residues, ends and D or L forms follow the SMILES beside them. dNle = CCCC[C@@H](N)C(=O)O; dDab = NCC[C@@H](N)C(=O)O; dNva = CCC[C@@H](N)C(=O)O; Orn = NCCC[C@H](N)C(=O)O; Dab = NCC[C@H](N)C(=O)O

What was measured:
[1] = target: T1, μ-opioid receptor (Rattus norvegicus, UniProt P33535); assay: biochemical; type: binding
T1 construct: displacement of the radioligands from the rat brain membrane preparations; from tissue; host or cells: rat brain membrane preparations

[2] = target: T2, δ-opioid receptor (Rattus norvegicus, UniProt P33533); assay: biochemical; type: binding
T2 construct: displacement of the radioligands from the rat brain membrane preparations; from tissue; host or cells: rat brain membrane preparations

[3] = tested on: PBQ-induced writhing; assay: Mouse writhing test (PBQ); type: in vivo; details: dose reducing the number of writhes by 50%
Description: The mouse writhing test detects both peripherally and centrally mediated analgesic effects. The test procedure is described in Siegmund et al., Proc. Soc. Exp. Biol. Med., 95, p. 729 (1957). In this test, a control group of albino mice was injected intraperitoneally with 0.3 ml/20 g body weight of a 0.02% solution of 2-phenyl-1,4-benzoquinone (PBQ). The writhing and contortional movements of the mice over the following 15 minutes were recorded. A second group of mice was given a dose of a synthetic dermorphin analog according to this invention, then allowed to wait a period of time before being administered the PBQ injection. The average number of writhes was then recorded and compared to the control group. The results of this test are expressed as the dosage of peptide that reduces the number of writhes by 50% at a given time interval (referred to as ED50).

[4] = tested on: hot plate stimulus; assay: Mouse hot plate test; type: in vivo; details: dose 40 mg/kg
Description: The mouse hot plate test is an assay which only detects centrally-mediated analgesic effects. This test was carried out using the protocol described in G. Woolfe and A. MacDonald, J. Pharmacol. Exp. Ther., 80, p. 300 ([…]).
Since most of the peptides of the invention were not potent centrally, it was impossible to determine an ED50 value. […] A result is considered insignificant if 30% of mice or lower have responded.

T2 sequence (P33533 whole entry): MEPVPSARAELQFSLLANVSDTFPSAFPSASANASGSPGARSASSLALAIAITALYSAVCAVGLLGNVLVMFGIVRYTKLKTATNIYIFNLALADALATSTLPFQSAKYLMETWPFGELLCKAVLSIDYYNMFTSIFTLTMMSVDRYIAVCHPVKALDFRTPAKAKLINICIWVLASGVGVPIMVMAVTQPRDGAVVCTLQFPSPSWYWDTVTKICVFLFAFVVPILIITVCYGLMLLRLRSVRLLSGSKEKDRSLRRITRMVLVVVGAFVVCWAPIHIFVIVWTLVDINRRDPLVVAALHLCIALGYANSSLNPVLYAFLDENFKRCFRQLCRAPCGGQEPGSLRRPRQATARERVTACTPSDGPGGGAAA
T1 sequence (P33535 whole entry): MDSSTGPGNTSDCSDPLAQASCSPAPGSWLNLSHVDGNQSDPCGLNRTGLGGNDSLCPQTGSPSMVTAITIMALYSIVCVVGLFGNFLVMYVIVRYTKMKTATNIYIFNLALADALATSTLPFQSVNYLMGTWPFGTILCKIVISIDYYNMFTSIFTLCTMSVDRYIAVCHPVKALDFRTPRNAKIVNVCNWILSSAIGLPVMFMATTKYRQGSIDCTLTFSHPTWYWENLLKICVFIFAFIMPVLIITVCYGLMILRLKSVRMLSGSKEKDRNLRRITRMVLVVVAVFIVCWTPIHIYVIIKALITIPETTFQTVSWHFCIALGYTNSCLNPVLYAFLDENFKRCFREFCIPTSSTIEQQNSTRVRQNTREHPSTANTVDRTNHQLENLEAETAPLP

| SMILES | Ki [1] [µM] | Ki^δ /Ki^μ [1] | Ki [2] [µM] | PBQ (20 min.) ED50 [3] [mg/kg] | % of animals showing a 50% increase ([4]; time 60 min.) [%] | % of animals showing a 50% increase ([4]; time 120 min.) [%] | Kd ([2]; read-out: Dissociation constant of radioligand) [µM] |
| --- | --- | --- | --- | --- | --- | --- | --- |
| NCC[C@H](NC(=O)[C@H](Cc1ccccc1)NC(=O)[C@@H](Cc1ccccc1)NC(=O)[C@@H](N)Cc1ccc(O)cc1)C(N)=O [BCH-2466, H-Tyr-D-Phe-Phe-A2 bu-NH2] (H-Y[dF]F[Dab]-NH2) | 0.00281 | 507.59 | 1.42 | 0.2 | 80 |  |  |
| CC(C)[C@@H](NC(=O)[C@@H](N)Cc1ccc(O)cc1)C(=O)N[C@@H](Cc1ccccc1)C(=O)N[C@@H](CCN)C(N)=O [BCH-2467, H-Tyr-D-Val-Phe-A2 bu-NH2] (H-Y[dV]F[Dab]-NH2) | 0.00264 | 1113.55 | 6.28 | 2 | 90 |  |  |
| CC[C@@H](C)[C@@H](NC(=O)[C@@H](N)Cc1ccc(O)cc1)C(=O)N[C@@H](Cc1ccccc1)C(=O)N[C@@H](CCN)C(N)=O [BCH-2468, H-Tyr-D-Ile-Phe-A2 bu-NH2] (H-Y[dI]F[Dab]-NH2) | 0.0097 | 260.61 | 2.53 | 3 to 10 |  |  |  |
| NCC[C@H](NC(=O)[C@H](Cc1ccccc1)NC(=O)[C@@H](CO)NC(=O)[C@@H](N)Cc1ccc(O)cc1)C(N)=O [BCH-2469, H-Tyr-D-Ser-Phe-A2 bu-NH2] (H-Y[dS]F[Dab]-NH2) | 0.00511 | 1071.20 | 5.48 | 1.5 | 90 |  |  |
| C[C@@H](NC(=O)[C@@H](N)Cc1ccc(O)cc1)C(=O)N[C@@H](Cc1ccccc1)C(=O)N[C@@H](CCN)C(N)=O [BCH-2470, H-Tyr-D-Ala-Phe-A2 bu-NH2] (H-Y[dA]F[Dab]-NH2) | 0.00591 | 630.58 | 3.73 | 0.3 |  | 90 |  |
| CCC[C@@H](NC(=O)[C@@H](N)Cc1ccc(O)cc1)C(=O)N[C@@H](Cc1ccccc1)C(=O)N[C@@H](CCN)C(N)=O [BCH-2471, H-Tyr-D-Nva-Phe-A2 bu-NH2] (H-Y[dNva]F[Dab]-NH2) | 0.00056 | 790.51 | 0.441 | 0.2 | 100 |  |  |
| CCCC[C@@H](NC(=O)[C@@H](N)Cc1ccc(O)cc1)C(=O)N[C@@H](Cc1ccccc1)C(=O)N[C@@H](CCN)C(N)=O [BCH-2472, H-Tyr-D-Nle-Phe-A2 bu-NH2] (H-Y[dNle]F[Dab]-NH2) | 0.0102 | 207.88 | 2.13 | 0.8 | 60 |  |  |
| CC(C)C[C@@H](NC(=O)[C@@H](N)Cc1ccc(O)cc1)C(=O)N[C@@H](Cc1ccccc1)C(=O)N[C@@H](CCN)C(N)=O [BCH-2474, H-Tyr-D-Leu-Phe-A2 bu-NH2] (H-Y[dL]F[Dab]-NH2) | 0.0698 | 186.98 | 13.1 | > 10 |  |  |  |
| NCCC[C@H](NC(=O)[C@H](Cc1ccccc1)NC(=O)[C@@H](CCN)NC(=O)[C@@H](N)Cc1ccc(O)cc1)C(N)=O [BCH-2580, H-Tyr-D-A2 bu-Phe-Orn-NH2] (H-Y[dDab]F[Orn]-NH2) |  | 411.98 |  | 1.2 | 80 |  |  |
| N=C(N)NCCC[C@@H](NC(=O)[C@@H](N)Cc1ccc(O)cc1)C(=O)N[C@@H](Cc1ccccc1)C(=O)N[C@@H](Cc1ccccc1)C(N)=O [BCH-2687, H-Tyr-D-Arg-Phe-Phe-NH2] (H-Y[dR]FF-NH2) |  |  |  |  | 70 |  |  |
| N=C(N)NCCC[C@@H](NC(=O)[C@@H](N)Cc1ccc(O)cc1)C(=O)N[C@@H](Cc1ccccc1)C(=O)N[C@@H](CO)C(N)=O [BCH-2688, H-Tyr-D-Arg-Phe-Ser-NH2] (H-Y[dR]FS-NH2) |  |  |  |  | 100 |  |  |
| CC(C)C[C@H](NC(=O)[C@H](Cc1ccccc1)NC(=O)CNC(=O)[C@@H](CO)NC(=O)[C@@H](N)Cc1ccc(O)cc1)C(=O)N[C@H](C(=O)O)[C@@H](C)O [[^3 H]DSLET, reference compound] |  |  |  |  |  |  | 0.0026 |
